The record followed here is patent US12344610B2, “APOL1 inhibitors and methods of use” (Maze Therapeutics, Inc., priority 2022, dated 2025).

SMILES strings stand for the structures. Like-named read-outs stand apart in the source and are kept apart here.

The subject of the experiment is Trypanosoma brucei Lister 427 VSG221 with APOL1 G0 recombinant protein. The experiment can be described thus: APOL1 G0 trypanosome cell rescue assay (Example B5). Type of experiment: cell-based. The settings on record: geometric mean of at least 2 assay runs, † = single assay run. The gist of the method: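 Viability read by CellTiter-Glo luminescence after 20 h co-incubation (37° C, 5% CO2) of 250 trypanosomes/well in modified HMI-9 with test compound (duplicate 11-point, 2-fold dilutions, 0.4% DMSO) and APOL1 protein, […]. Protein: mature residues 28-398, E. coli inclusion-body refolded, tag cleaved, in DDM.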

[1] abbreviates: Trypanosoma brucei, 20 h, read-out: APOL1 G0 Trypanosome Rescue EC50, Trypanosoma brucei Lister 427 VSG221 with APOL1 G0 recombinant protein, 20 hours, CellTiter-Glo.
The mark [2] stands for this setting: read-out: APOL1 G0 Trypanosome Rescue EC50, Trypanosoma brucei Lister 427 VSG221 with APOL1 G0 recombinant protein, 20 hours, CellTiter-Glo.

For the compound `CC1(O)CC(CN2C(=O)CCc3cc(OCCN4CCC5(CC4)C(=O)Nc4ccc(Cl)cc45)cnc32)C1` (centres unmarked) [Compound 327, 5-chloro-1′-[2-({8-[(3-hydroxy-3-methylcyclobutyl)methyl]-7-oxo-5,6,7,8-tetrahydro-1,8-naphthyridin-3-yl}oxy)ethyl]-1,2-dihydrospiro[indole-3,4′-piperidin]-2-one], the EC50 (usually the concentration at which the effect is half-maximal) under setting [1] came out at 39.9 nM.
In the case of `Cc1nc(-c2ccc(OCCN3CCC4(CC3)C(=O)N(C)c3ccccc34)cc2)no1` [Compound 35, 1-methyl-1′-{2-[4-(5-methyl-1,2,4-oxadiazol-3-yl)phenoxy]ethyl}-1,2-dihydrospiro[indole-3,4′-piperidin]-2-one], under setting [1], the EC50 is over 4000 nM.
With `CC1(O)CC(c2ncc(OCCN3CCC4(CC3)C(=O)Nc3ccc(Cl)cc34)cn2)C1` (single isomer, unassigned) [Compound 393, 5-chloro-1′-[2-({2-[(cis) or (trans)-3-hydroxy-3-methylcyclobutyl]pyrimidin-5-yl}oxy)ethyl]-1,2-dihydrospiro[indole-3,4′-piperidin]-2-one], under setting [2], the 50% effective concentration (EC50) was found to be 300 nM.
On to `Cc1cc(OCCN2CCC3(CC2)C(=O)Nc2ccc(Cl)cc23)ccc1C(N)=O` [Compound 49, 4-(2-{5-chloro-2-oxo-1,2-dihydrospiro[indole-3,4′-piperidin]-1′-yl}ethoxy)-2-methylbenzamide], for which the concentration giving a half-maximal response (EC50) under setting [1] came out at 213 nM.
For the compound `C[C@]1(O)C[C@@H](n2cc3cc(OCCN4CCC5(CC4)C(=O)Nc4ccc(Cl)cc45)cc(C(F)(F)F)c3n2)C1` [Compound 427, 5-chloro-1′-[2-({2-[(cis)-3-hydroxy-3-methylcyclobutyl]-7-(trifluoromethyl)-2H-indazol-5-yl}oxy)ethyl]-1,2-dihydrospiro[indole-3,4′-piperidin]-2-one], the EC50 under setting [1] was found to be 15.6 nM.
Same read-out and setting: then `CS(C)(=O)=Nc1ccc(OCCN2CCC3(CC2)C(=O)Nc2ccc(C#N)cc23)cc1` [Compound 77, 1′-[2-(4-{[dimethyl(oxo)-λ^6-sulfanylidene]amino}phenoxy)ethyl]-2-oxo-1,2-dihydrospiro[indole-3,4′-piperidine]-5-carbonitrile], with over 4000 nM; and `CS(=O)(=O)c1ccc(OCCN2CCC3(CC2)C(=O)Nc2ccc(Br)cc23)cc1` [Compound 72, 5-bromo-1′-[2-(4-methanesulfonylphenoxy)ethyl]-1,2-dihydrospiro[indole-3,4′-piperidin]-2-one], with 128 nM; and `CN1C(=O)CCc2cc(OCCN3CCC4(CC3)C(=O)Nc3ccc(C#N)cc34)cnc21` [Compound 79, 1′-{2-[(8-methyl-7-oxo-5,6,7,8-tetrahydro-1,8-naphthyridin-3-yl)oxy]ethyl}-2-oxo-1,2-dihydrospiro[indole-3,4′-piperidine]-5-carbonitrile], with 846 nM.
For `CS(=O)(=O)c1ccc(OCCN2CCC3(CC2)C(=O)Nc2ccc(Cl)cc23)cn1` [Compound 64, 5-chloro-1′-{2-[(6-methanesulfonylpyridin-3-yl)oxy]ethyl}-1,2-dihydrospiro[indole-3,4′-piperidin]-2-one], the EC50 under setting [1] stood at 503 nM.
Still for that read-out and setting: then `C[C@]1(O)C[C@@H](n2c(=O)[nH]c3cc(OCCN4CCC5(CC4)C(=O)Nc4ccc(Cl)cc45)cc(C(F)(F)F)c32)C1` [Compound 468, 5-chloro-1′-[2-({2-oxo-1-[(cis)-3-hydroxy-3-methylcyclobutyl]-7-(trifluoromethyl)-2,3-dihydro-1H-1,3-benzodiazol-5-yl}oxy)ethyl]-1,2-dihydrospiro[indole-3,4′-piperidin]-2-one], with 3.72 nM; and `C[C@]1(O)C[C@@H](n2c(=O)ccc3cc(OCCN4CCC5(CC4)C(=O)Nc4ccc(C(F)F)cc45)cnc32)C1` [Compound 324, 5-(difluoromethyl)-1′-[2-({7-oxo-8-[(cis)-3-hydroxy-3-methylcyclobutyl]-7,8-dihydro-1,8-naphthyridin-3-yl}oxy)ethyl]-1,2-dihydrospiro[indole-3,4′-piperidin]-2-one], with 28.9 nM.
The same measure, in the same setting: then `CN(c1ccc(OCCN2CCC3(CC2)C(=O)Nc2ccc(Cl)cc23)cc1)S(C)(=O)=O` [Compound 76, N-[4-(2-{5-chloro-2-oxo-1,2-dihydrospiro[indole-3,4′-piperidin]-1′-yl}ethoxy)phenyl]-N-methylmethanesulfonamide], with 106 nM.
On to `CC1(O)CC(CN2C(=O)CCc3cc(OCCN4CCC5(CC4)C(=O)Nc4ccc(Cl)cc45)cnc32)C1` (single isomer, unassigned) [Compound 322, 5-chloro-1′-{2-[(7-oxo-8-{[(trans) or (cis)-3-hydroxy-3-methylcyclobutyl]methyl}-5,6,7,8-tetrahydro-1,8-naphthyridin-3-yl)oxy]ethyl}-1,2-dihydrospiro[indole-3,4′-piperidin]-2-one], for which, under setting [2], the EC50 was found to be 29.3 nM.
As to `CC(=O)N1CCCc2cc(OCCN3CCC4(CC3)C(=O)Nc3ccc(Cl)cc34)ccc21` [Compound 56, 1′-{2-[(1-acetyl-1,2,3,4-tetrahydroquinolin-6-yl)oxy]ethyl}-5-chloro-1,2-dihydrospiro[indole-3,4′-piperidin]-2-one], the EC50 under setting [1] was 296 nM.
Same read-out and setting: then `CC1(O)CC2(CN(c3ncc(OCCN4CCC5(CC4)C(=O)Nc4ccc(Cl)cc45)cn3)C2)C1` [Compound 459, 5-chloro-1′-{2-[(2-{6-hydroxy-6-methyl-2-azaspiro[3.3]heptan-2-yl}pyrimidin-5-yl)oxy]ethyl}-1,2-dihydrospiro[indole-3,4′-piperidin]-2-one], with 101 nM; and `C[C@]1(O)C[C@@H](n2c(=O)ccc3cc(OCCN4CCC5(CC4)C(=O)Nc4ccc(Cl)cc45)cnc32)C1` [Compound 323, 5-chloro-1′-[2-({7-oxo-8-[(cis)-3-hydroxy-3-methylcyclobutyl]-7,8-dihydro-1,8-naphthyridin-3-yl}oxy)ethyl]-1,2-dihydrospiro[indole-3,4′-piperidin]-2-one], with 32 nM.
Regarding `C[C@]1(O)C[C@@H](N2C(=O)Cc3cc(OCCN4CCC5(CC4)C(=O)Nc4ccc(Cl)cc45)cnc32)C1` [Compound 345, 5-chloro-1′-[2-({2-oxo-1-[(cis)-3-hydroxy-3-methylcyclobutyl]-1H,2H,3H-pyrrolo[2,3-b]pyridin-5-yl}oxy)ethyl]-1,2-dihydrospiro[indole-3,4′-piperidin]-2-one], the EC50 under setting [1] was determined as 161 nM.
Still for that read-out and setting: then `CC(C)(O)c1ncc(OCCN2CCC3(CC2)C(=O)Nc2ccc(Cl)cc23)cc1C(F)(F)F` [Compound 371, 5-chloro-1′-(2-{[6-(2-hydroxypropan-2-yl)-5-(trifluoromethyl)pyridin-3-yl]oxy}ethyl)-1,2-dihydrospiro[indole-3,4′-piperidin]-2-one], with 18.8 nM; and `C[C@]1(O)C[C@@H](N2C(=O)NCc3cc(OCCN4CCC5(CC4)C(=O)Nc4ccc(Cl)cc45)cnc32)C1` [Compound 356, 5-chloro-1′-[2-({2-oxo-1-[(cis)-3-hydroxy-3-methylcyclobutyl]-1H,2H,3H,4H-pyrido[2,3-d]pyrimidin-6-yl}oxy)ethyl]-1,2-dihydrospiro[indole-3,4′-piperidin]-2-one], with 101 nM.
Consider `C[C@]1(O)C[C@@H](n2cc3cc(OCCN4CCC5(CC4)C(=O)Nc4ccc(C#N)cc45)cc(C(F)(F)F)c3n2)C1` [Compound 428, 2-oxo-1′-[2-({2-[(cis)-3-hydroxy-3-methylcyclobutyl]-7-(trifluoromethyl)-2H-indazol-5-yl}oxy)ethyl]-1,2-dihydrospiro[indole-3,4′-piperidine]-5-carbonitrile], for which, under setting [1], the EC50 came out at 63.3 nM.
For `O=C1Nc2ccc(Cl)cc2C12CCN(CCOc1cnc(C3(CO)CC3)nc1)CC2` [Compound 333, 5-chloro-1′-[2-({2-[1-(hydroxymethyl)cyclopropyl]pyrimidin-5-yl}oxy)ethyl]-1,2-dihydrospiro[indole-3,4′-piperidin]-2-one], the EC50 under setting [1] came out at 152 nM.
The same measure, in the same setting: then `C[C@]1(O)C[C@@H](n2cnc3cc(OCCN4CCC5(CC4)C(=O)Nc4ccc(Cl)cc45)cc(C(F)(F)F)c32)C1` [Compound 352, 5-chloro-1′-[2-({1-[(cis)-3-hydroxy-3-methylcyclobutyl]-7-(trifluoromethyl)-1H-1,3-benzodiazol-5-yl}oxy)ethyl]-1,2-dihydrospiro[indole-3,4′-piperidin]-2-one], with 18.7 nM; and `C[C@]1(O)C[C@@H](n2c(=O)[nH]c3cc(OCCN4CCC5(CC4)C(=O)Nc4ccc(C#N)cc45)cc(C(F)(F)F)c32)C1` [Compound 470, 2-oxo-1′-[2-({2-oxo-1-[(cis)-3-hydroxy-3-methylcyclobutyl]-7-(trifluoromethyl)-2,3-dihydro-1H-1,3-benzodiazol-5-yl}oxy)ethyl]-1,2-dihydrospiro[indole-3,4′-piperidine]-5-carbonitrile], with 8.82 nM.
Still for that read-out and setting: then `O=C1Nc2ccc(Cl)cc2C12CCN(CCOc1ccc3nccnc3c1)CC2` [Compound 62, 5-chloro-1′-[2-(quinoxalin-6-yloxy)ethyl]-1,2-dihydrospiro[indole-3,4′-piperidin]-2-one], with 407 nM; and `O=C1Nc2ccc(Cl)cc2C12CCN(CCOc1ccc(S(=O)(=O)C3CC3)cc1)CC2` [Compound 43, 5-chloro-1′-{2-[4-(cyclopropanesulfonyl)phenoxy]ethyl}-1,2-dihydrospiro[indole-3,4′-piperidin]-2-one], with 52.2 nM; and `CN1C(=O)CCc2cc(OCCN3CCC4(CC3)C(=O)Nc3ccc(Cl)cc34)cnc21` [Compound 78, 5-chloro-1′-{2-[(8-methyl-7-oxo-5,6,7,8-tetrahydro-1,8-naphthyridin-3-yl)oxy]ethyl}-1,2-dihydrospiro[indole-3,4′-piperidin]-2-one], with 95.2 nM.
